Laboratory results from US20250059171A1 (Hoffmann-La Roche Inc., priority 2021, published 2025).

Columns and labels:
SARS-CoV-2 3CLpro = SARS-CoV-2 3CLpro (Severe acute respiratory syndrome coronavirus 2, UniProt P0DTD1); assay: biochemical
HCoV-229E 3CLpro = HCoV-229E 3CLpro (Human coronavirus 229E, UniProt P0C6X1); assay: HCoV-229E 3CLpro inhibition assay (FRET); assay type: biochemical
MERS-CoV 3CLpro = MERS-CoV 3CLpro (Middle East respiratory syndrome-related coronavirus, UniProt K9N7C7); assay: biochemical
MERS-CoV 3CLpro, sequence (K9N7C7 3248-3553): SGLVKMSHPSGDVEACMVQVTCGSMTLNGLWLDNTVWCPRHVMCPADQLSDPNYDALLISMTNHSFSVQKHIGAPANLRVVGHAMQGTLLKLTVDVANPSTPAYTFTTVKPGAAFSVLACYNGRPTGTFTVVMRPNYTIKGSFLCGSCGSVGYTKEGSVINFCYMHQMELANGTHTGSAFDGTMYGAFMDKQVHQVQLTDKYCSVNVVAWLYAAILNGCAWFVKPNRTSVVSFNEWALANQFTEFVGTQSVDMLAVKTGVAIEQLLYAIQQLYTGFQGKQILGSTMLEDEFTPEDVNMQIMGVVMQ

SARS-CoV 3CLpro = SARS-CoV 3CLpro (Severe acute respiratory syndrome coronavirus, UniProt P0C6X7); assay: biochemical

HCoV-229E 3CLpro, sequence (P0C6X1 2966-3267): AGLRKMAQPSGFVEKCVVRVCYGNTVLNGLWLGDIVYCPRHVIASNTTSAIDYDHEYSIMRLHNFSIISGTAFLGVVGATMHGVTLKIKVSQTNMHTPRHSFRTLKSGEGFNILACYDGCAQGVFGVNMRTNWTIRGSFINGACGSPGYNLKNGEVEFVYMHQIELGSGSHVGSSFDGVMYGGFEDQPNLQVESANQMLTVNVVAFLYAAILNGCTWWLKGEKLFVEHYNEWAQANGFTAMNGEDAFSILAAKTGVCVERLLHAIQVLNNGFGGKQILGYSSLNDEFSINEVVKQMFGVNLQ

| SMILES | IC50 (SARS-CoV-2 3CLpro) [µM] | IC50 (HCoV-229E 3CLpro) [µM] | IC50 (MERS-CoV 3CLpro) [µM] | IC50 (SARS-CoV 3CLpro) [µM] |
| --- | --- | --- | --- | --- |
| CC(C)(C)[C@H](NC(=O)C1(F)CC1)C(=O)N1C[C@@H]2CCC[C@@H]2[C@H]1C(=O)NN(C[C@@H]1CCNC1=O)C(=O)[C@@H](F)Cl [Example 103, N-[(1S)-1-[(3S,3aS,6aR)-3-[[[(2S)-2-chloro-2-fluoro-acetyl]-[[(3S)-2-oxopyrrolidin-3-yl]methyl]amino]carbamoyl]-3,3a,4,5,6,6a-hexahydro-1H-cyclopenta[c]pyrrole-2-carbonyl]-2,2-dimethyl-propyl]-1-fluoro-cyclopropanecarboxamide] | 0.013 | 0.167 | 0.372 | 0.025 |
| CC(C)(C)[C@H](NC(=O)[C@H]1CC1(F)F)C(=O)N1C[C@@H]2CCC[C@@H]2[C@H]1C(=O)NN(C[C@@H]1CCNC1=O)C(=O)[C@@H](F)Cl [Example 104, (1R)—N-[(1S)-1-[(3S,3aS,6aR)-3-[[[(2S)-2-chloro-2-fluoro-acetyl]-[[(3S)-2-oxopyrrolidin-3-yl]methyl]amino]carbamoyl]-3,3a,4,5,6,6a-hexahydro-1H-cyclopenta[c]pyrrole-2-carbonyl]-2,2-dimethyl-propyl]-2,2-difluoro-cyclopropanecarboxamide] | 0.012 | 0.055 | 0.128 | 0.02 |
| CC[C@H](C)[C@H](NC(=O)C1(F)CCC1)C(=O)N1C[C@H]2[C@@H]([C@H]1C(=O)NN(C[C@@H]1CCNC1=O)C(=O)[C@H](F)Cl)C2(C)C [Example 105, N-[(1S,2S)-1-[(1R,2S,5S)-2-[[[(2R)-2-chloro-2-fluoro-acetyl]-[[(3S)-2-oxopyrrolidin-3-yl]methyl]amino]carbamoyl]-6,6-dimethyl-3-azabicyclo[3.1.0]hexane-3-carbonyl]-2-methyl-butyl]-1-fluoro-cyclobutanecarboxamide] | 0.008 | 0.027 | 0.071 | 0.011 |
| CC[C@H](C)[C@H](NC(=O)C1(F)CC1)C(=O)N1C[C@H]2[C@@H]([C@H]1C(=O)NN(C[C@@H]1CCNC1=O)C(=O)[C@@H](F)Cl)C2(C)C [Example 106, N-[(1S,2S)-1-[(1R,2S,5S)-2-[[[(2S)-2-chloro-2-fluoro-acetyl]-[[(3S)-2-oxopyrrolidin-3-yl]methyl]amino]carbamoyl]-6,6-dimethyl-3-azabicyclo[3.1.0]hexane-3-carbonyl]-2-methyl-butyl]-1-fluoro-cyclopropanecarboxamide] | 0.033 | 0.066 | 0.179 | 0.057 |
| CC[C@H](C)[C@H](NC(=O)C(F)(F)F)C(=O)N1C[C@H]2[C@@H]([C@H]1C(=O)NN(C[C@@H]1CCNC1=O)C(=O)[C@@H](F)Cl)C2(C)C [Example 107, N-[(1S,2S)-1-[(1R,2S,5S)-2-[[[(2S)-2-chloro-2-fluoro-acetyl]-[[(3S)-2-oxopyrrolidin-3-yl]methyl]amino]carbamoyl]-6,6-dimethyl-3-azabicyclo[3.1.0]hexane-3-carbonyl]-2-methyl-butyl]-2,2,2-trifluoro-acetamide] | 0.018 | 0.04 | 0.111 | 0.025 |
| CC[C@H](C)[C@H](NC(=O)C1CC(F)(F)C1)C(=O)N1C[C@H]2[C@@H]([C@H]1C(=O)NN(C[C@@H]1CCNC1=O)C(=O)[C@@H](F)Cl)C2(C)C [Example 108, N-[(1S,2S)-1-[(1R,2S,5S)-2-[[[(2S)-2-chloro-2-fluoro-acetyl]-[[(3S)-2-oxopyrrolidin-3-yl]methyl]amino]carbamoyl]-6,6-dimethyl-3-azabicyclo[3.1.0]hexane-3-carbonyl]-2-methyl-butyl]-3,3-difluoro-cyclobutanecarboxamide] | 0.043 | 0.05 | 0.127 | 0.074 |
| CC[C@H](C)[C@H](NC(=O)C(F)F)C(=O)N1C[C@H]2[C@@H]([C@H]1C(=O)NN(C[C@@H]1CCNC1=O)C(=O)[C@@H](F)Cl)C2(C)C [Example 109, N-[(1S,2S)-1-[(1R,2S,5S)-2-[[[(2S)-2-chloro-2-fluoro-acetyl]-[[(3S)-2-oxopyrrolidin-3-yl]methyl]amino]carbamoyl]-6,6-dimethyl-3-azabicyclo[3.1.0]hexane-3-carbonyl]-2-methyl-butyl]-2,2-difluoro-acetamide] | 0.014 | 0.029 | 0.086 | 0.02 |
| CC[C@H](C)[C@H](NC(=O)C(C)C)C(=O)N1C[C@H]2[C@@H]([C@H]1C(=O)NN(C[C@@H]1CCNC1=O)C(=O)[C@@H](F)Cl)C2(C)C [Example 110, N-[(1S,2S)-1-[(1R,2S,5S)-2-[[[(2S)-2-chloro-2-fluoro-acetyl]-[[(3S)-2-oxopyrrolidin-3-yl]methyl]amino]carbamoyl]-6,6-dimethyl-3-azabicyclo[3.1.0]hexane-3-carbonyl]-2-methyl-butyl]-2-methyl-propanamide] | 0.024 | 0.037 | 0.096 | 0.033 |
| CC[C@@H](C)[C@H](NC(=O)C(F)F)C(=O)N1C[C@H]2[C@@H]([C@H]1C(=O)NN(C[C@@H]1CCNC1=O)C(=O)[C@H](F)Cl)C2(C)C [Example 112, N-[(1S,2R)-1-[(1R,2S,5S)-2-[[[(2R)-2-chloro-2-fluoro-acetyl]-[[(3S)-2-oxopyrrolidin-3-yl]methyl]amino]carbamoyl]-6,6-dimethyl-3-azabicyclo[3.1.0]hexane-3-carbonyl]-2-methyl-butyl]-2,2-difluoro-acetamide] | 0.008 | 0.022 | 0.071 | 0.014 |
| CC[C@@H](C)[C@H](NC(=O)C1CC(F)(F)C1)C(=O)N1C[C@H]2[C@@H]([C@H]1C(=O)NN(C[C@@H]1CCNC1=O)C(=O)[C@H](F)Cl)C2(C)C [Example 114, N-[(1S,2R)-1-[(1R,2S,5S)-2-[[[(2R)-2-chloro-2-fluoro-acetyl]-[[(3S)-2-oxopyrrolidin-3-yl]methyl]amino]carbamoyl]-6,6-dimethyl-3-azabicyclo[3.1.0]hexane-3-carbonyl]-2-methyl-butyl]-3,3-difluoro-cyclobutanecarboxamide] | 0.017 | 0.029 | 0.113 | 0.025 |
| CC[C@@H](C)[C@H](NC(=O)C1(F)CC1)C(=O)N1C[C@H]2[C@@H]([C@H]1C(=O)NN(C[C@@H]1CCNC1=O)C(=O)[C@H](F)Cl)C2(C)C [Example 115, N-[(1S,2R)-1-[(1R,2S,5S)-2-[[[(2R)-2-chloro-2-fluoro-acetyl]-[[(3S)-2-oxopyrrolidin-3-yl]methyl]amino]carbamoyl]-6,6-dimethyl-3-azabicyclo[3.1.0]hexane-3-carbonyl]-2-methyl-butyl]-1-fluoro-cyclopropanecarboxamide] | 0.009 | 0.03 | 0.102 | 0.015 |
| CC[C@@H](C)[C@H](NC(=O)[C@@H](C)F)C(=O)N1C[C@H]2[C@@H]([C@H]1C(=O)NN(C[C@@H]1CCNC1=O)C(=O)[C@H](F)Cl)C2(C)C [Example 116, (2R)—N-[(1S,2R)-1-[(1R,2S,5S)-2-[[[(2R)-2-chloro-2-fluoro-acetyl]-[[(3S)-2-oxopyrrolidin-3-yl]methyl]amino]carbamoyl]-6,6-dimethyl-3-azabicyclo[3.1.0]hexane-3-carbonyl]-2-methyl-butyl]-2-fluoro-propanamide] | 0.014 | 0.036 | 0.098 | 0.018 |
| CC[C@@H](C)[C@H](NC(=O)[C@H](C)F)C(=O)N1C[C@H]2[C@@H]([C@H]1C(=O)NN(C[C@@H]1CCNC1=O)C(=O)[C@H](F)Cl)C2(C)C [Example 117, (2S)—N-[(1S,2R)-1-[(1R,2S,5S)-2-[[[(2R)-2-chloro-2-fluoro-acetyl]-[[(3S)-2-oxopyrrolidin-3-yl]methyl]amino]carbamoyl]-6,6-dimethyl-3-azabicyclo[3.1.0]hexane-3-carbonyl]-2-methyl-butyl]-2-fluoro-propanamide] | 0.011 | 0.025 | 0.086 | 0.011 |
| CC[C@@H](C)[C@H](NC(=O)C1CC1)C(=O)N1C[C@H]2[C@@H]([C@H]1C(=O)NN(C[C@@H]1CCNC1=O)C(=O)[C@H](F)Cl)C2(C)C [Example 118, N-[(1S,2R)-1-[(1R,2S,5S)-2-[[[(2R)-2-chloro-2-fluoro-acetyl]-[[(3S)-2-oxopyrrolidin-3-yl]methyl]amino]carbamoyl]-6,6-dimethyl-3-azabicyclo[3.1.0]hexane-3-carbonyl]-2-methyl-butyl]cyclopropanecarboxamide] | 0.013 | 0.027 | 0.109 | 0.018 |
| CC[C@@H](C)[C@H](NC(=O)C1(F)CCC1)C(=O)N1C[C@H]2[C@@H]([C@H]1C(=O)NN(C[C@@H]1CCNC1=O)C(=O)[C@H](F)Cl)C2(C)C [Example 119, N-[(1S,2R)-1-[(1R,2S,5S)-2-[[[(2R)-2-chloro-2-fluoro-acetyl]-[[(3S)-2-oxopyrrolidin-3-yl]methyl]amino]carbamoyl]-6,6-dimethyl-3-azabicyclo[3.1.0]hexane-3-carbonyl]-2-methyl-butyl]-1-fluoro-cyclobutanecarboxamide] | 0.015 | 0.056 | 0.206 | 0.02 |
| CC[C@@H](C)[C@H](NC(=O)C(F)F)C(=O)N1C[C@H]2[C@@H]([C@H]1C(=O)NN(C[C@@H]1CCNC1=O)C(=O)[C@@H](F)Cl)C2(C)C [Example 120, N-[(1S,2R)-1-[(1R,2S,5S)-2-[[[(2S)-2-chloro-2-fluoro-acetyl]-[[(3S)-2-oxopyrrolidin-3-yl]methyl]amino]carbamoyl]-6,6-dimethyl-3-azabicyclo[3.1.0]hexane-3-carbonyl]-2-methyl-butyl]-2,2-difluoro-acetamide] | 0.019 | 0.038 | 0.098 | 0.034 |
